# Assay results taken from patent US20220389389A1, “METHODS AND A KIT TO REPROGRAM SOMATIC CELLS” (Novoxyne LLC, priority 2019, published 2022).
# Assays:
# PIFs = settings: in vitro culture; cited from earlier work
# [1] = cited from earlier work
# [2] = test system: iPSC generation from fibroblasts; settings: without c-Myc and Klf4; cited from earlier work
# EF cells [3] = assay: MSAIC inhibition assay with GsMTX4, PI gene messages by real time PCR; assay type: cell-based, mouse
# Protocol: (§1) C57BL/6 male mice (4-6 weeks old) were purchased from Jackson Laboratory. Bone marrow cells and spleen cells were obtained from 4-6-week-old male C57BL/6 mice. Cells in single cell suspension were red cell-depleted before use. Bone marrow stromal cells were cultured and passaged in T75 culture flask as it was described [Torino et al., Bio-protocol 4: e1031 (2014)]. The embryonic fibroblast was prepared from 13-day fetus of C57BL/6 as described previously [Qiu et al., Bio-protocol 6: e1859 (2016)]. Cells used for the reprogramming were those cultured for 2 to 4 passage periods.
# (§2) Cells were cultured in 6 well plates (10^7 cells/well) in triplicate per group. GsMTX4 dissolved in PBS was added to the concentration 5 μM in the experimental group. Sixteen hours later, cells were harvested by scraper for spleen cells and bone marrow cells, pelleted for total RNA-extraction with RNeasy (Qiagen) or Trizol (Invitrogen). For EF cells and BM stromal cells, cell culture medium was drained and directly resuspended to the cell lysis buffer in the culture wells. Extracted RNAs were subjected to cDNA synthesis (Applied Bioscience) and analyzed for the messages specific for mouse PI genes and control genes by real time PCR thereto cycler (Bio-Rad, CFX384). […]
# [4] = test system: bone marrow stroma cell line; assay: as above; assay type: cell-based, mouse; settings: GsMTX4, O/N culture
# Protocol: as §1, §2
# bone marrow cells = assay: MSAIC inhibition assay with GsMTX4 / matrix stiffness culture, PI gene messages by real time PCR; assay type: cell-based, mouse; settings: 5 μM GsMTX4, 16 hours
# Protocol: as §1
# (§3) Cells were cultured in 6 well plates (10^7 cells/well) in triplicate per group. GsMTX4 dissolved in PBS was added to the concentration 5 μM in the experimental group. Sixteen hours later, cells were harvested by scraper for spleen cells and bone marrow cells, pelleted for total RNA-extraction with RNeasy (Qiagen) or Trizol (Invitrogen). For EF cells and BM stromal cells, cell culture medium was drained and directly resuspended to the cell lysis buffer in the culture wells. Extracted RNAs were subjected to cDNA synthesis (Applied Bioscience) and analyzed for the messages specific for mouse PI genes and control genes by real time PCR thereto cycler (Bio-Rad, CFX384). Primers used were: Oct4 (5′: […] (SEQ ID NO:5), 3′: […] (SEQ ID NO:6), Sox2 (5′: […] (SEQ ID NO:7), 3′: […] (SEQ ID NO:8), Nanog (5′: […] ([…]), 3′: […] (SEQ ID NO:10), CFBP/α (5′: […] (SEQ ID NO:11), 3′: […] (SEQ ID NO:12), c-Myc (5′: […] (SEQ ID NO:13), 3′: TTATGCACCAGAGTTTCG (SEQ ID NO:14), RUNX1 (5′: […] (SEQ ID NO:15), 3′: […] (SEQ ID NO:16), PU1 (5′: […] (SEQ ID NO:17), 3′: […] (SEQ ID NO:18), IRF8 (5′: […] (SEQ ID NO:19), 3′: […] (SEQ ID NO:20), FOXP1 (5′: […] (SEQ ID NO:21), 3′: […] (SEQ ID NO:22), KLF4 (5′: […] (SEQ ID NO:23), 3′: […] (SEQ ID NO:24), Actin (5′: […] (SEQ ID NO:25), 3′: […] (SEQ ID NO:26), GAPDH 5′: […] (SEQ ID NO:27), 3′: […] (SEQ ID NO:28). The value of each Cq (Ct) were applied to the formula by which the message level of each specific gene (shown by the index value) was estimated in comparison to that of Actin or GAPDH housekeeping genes.
# (§4) Tissue culture plates with defined elasticity surface (0.2, 4, 50 kpa) were purchased from Matrigen. To cast polyacrylamide gel in petri-dishes, 3.5 cm petri-dish was used. Each dish was loaded with 330 μL of polyacrylamide gel cocktail and promptly the size-matched drop lid (polypropylene) was placed on the top (FIG. 30). Three different elasticities of the polyacrylamide gel were prepared in the study. The ratio of [acrylamide (40%): bis-acrylamide (2%): water] was determined according from the published data [Tse and Engler, Curr. Protoc. Cell Biol. Chapt. 10 Unit 10.16 (2010)]. Those were (75:112.5:812.5) for 1.7 kpa, (100:150:750) for 3.2 kpa and (250:30:720) for 7.4 kpa. The slice of the 50 ml conical centrifuge tube caps were used for the drop caps (arrow-pointed in FIG. 30).
# In experiments, mouse bone marrow cells were in vitro 37° C. cultured 16 hours in the presence of 5 μM GsMTX4. Cells were then assayed for the PI genes' messages as listed in the left of the FIG. 1. […] The presence of GsMTX4 in the culture was expected to prevent cells from sensing the strong stretch stress by MSAICs. Strikingly, the cells cultured in the presence of GsMTX4 expressed greater than 100 times of Oct4 message compared with the control cells (FIG. 1). […] 10(1): e1004079 (2014); North et al., Stem Cells. 22:158 (2004)].
# The fresh bone marrow cells were cultured for 16 hours in 6 well plates with GsMTX4 (5 μM) in DMEM supplemented with 10% FBS. The messages specific for the genes listed in the left were real time PCR-characterized and presented as the relative index in comparison with the value of β-actin message. […]
# spleen cells = assay: MSAIC inhibition assay with GsMTX4, PI gene messages by real time PCR; assay type: cell-based, mouse
# Protocol: as §1
# as §3, with “The value of each Cq (Ct) were applied to the formula by which the message level of each specific gene (shown by the index value) was estimated in comparison to that of Actin or GAPDH housekeeping genes.” left out
# Spleen cells were 37° C.-treated with MβCD before the in vitro culture with GsMTX4 as described in FIG. 1. ND: not detected.
# EF cells [5] = assay: Reprogramming and differentiation culture of EF cells, microscopy and staining; assay type: cell-based, mouse
# Protocol: as §4
# Ninety minutes later drop lids were carefully removed and the gels in the dishes were washed 5 times with 3 ml of sterile water. Each aspiration of the water from the dish was gently performed with 1 ml micro pipettor. During the washing, casted acrylamide gel come off the bottom. […]
# Cells were suspended in DMEM supplemented with 5 mM MβCD at the concentration of 2×10^6/ml in 15 ml centrifuge tube. […] Cells on the gel and on the dish-bottom surface were monitored daily and the remarkable phenotype cells were recorded with EVOS cell monitoring system (Thermofisher). […]
# Human PBMC = assay: Nuclear reprogramming of human peripheral blood mononuclear cells; assay type: cell-based; settings: 5 mM MβCD twice 20 min, then soft polyacrylamide gel culture
# Description: Human PBMC is an attractive source of somatic cells for reprogramming to stem cells by the available iPSC technology. The sampling of the peripheral blood is a common practice in the medicine and possible to obtain at the individual specific fashion. The purification of the PBMC is also a regular method by Ficol gradient centrifugation. […] 27, 10-(2018), U.S. Pat. No. 9,447,382B2]. To investigate if the methods of the current invention can apply to reprogram human PBMC into the stem cell-like cells, and also differentiate into the de novo phenotypes in vitro, experiments were conducted in which cell were treated with MβCD and then cultured on the soft polyacrylamide gel as described infula.
# Human peripheral blood was corrected into the heparinized tube from left forearm vein. The blood mononuclear cells were separated using the Ficoll-Hypaque technique (density, 1.077; Pharmacia Biotech, Uppsala, Sweden). Cells were twice repeatedly 37° C. incubated for 20 min with 5 mM MβCD in DMEM, pelleted by centrifugation at 900 g at room temperature. Washed once with 37° C. warmed DMEM/F12 and resuspended in small volume complete medium (30 μl/2×10^6 cells) [DMEM/F12 (Corning), 20% knockout serum replacement (Gibco), 1% nonessential amino acids (Gibco), 5×10^−5M 2-Mercaptethanol]. Cells in the culture petri-dishes were monitored daily by microscopy and novel phenotype cells were recorded. […]
# EF cells [6] = assay: RT-PCR assay for the expression of PI genes in the reprogramming cultures of EF cells; assay type: cell-based, mouse
# Protocol: Cells were suspended in DMEM supplemented with 5 mM MβCD at the concentration of 2×10^6/ml in 15 ml centrifuge tube. Cell suspension was incubated for 30 min at 37° C. with every 5 min gentle agitations. Washed once with 37° C. warmed DMEM/F12 and resuspended in small volume complete medium (30 μl/2×10^6 cells) [DMEM/F12 (Corning), 20% knockout serum replacement (Gibco), 1% nonessential amino acids (Gibco), 5×10^−5M 2-Mercaptethanol]. To initiate reprogramming culture on hydrogel, petri dish was added with 2.5 ml complete medium, then 30 μl of cell suspension was loaded on the hydrogel. Multiple dishes were housed in a 15 cm diameter petri dish with a water filled un-lid 6 cm petri dish. Cells on the gel and on the dish-bottom surface were monitored daily and the remarkable phenotype cells were recorded with EVOS cell monitoring system (Thermofisher). Various phenotype cells were characterized by the assays for the markers specific for the cell lineages (e.g., Oil red 0 for the adipocytes and alizarin for calcium deposited cells) as commonly available methods.
# Cells derived from the MβCD-treated and hydrogel-exposed culture in petri dish were subjected to the extraction of total RNA by Trizol. cDNAs were prepared as described above and the regular PCR was performed (35 cycle) using PCR master mix (Biotool) and the primers listed above for the real time PCR assays. The PCR products were resolved using 1.5% agarose gel, Ethidium Bromide-stained and the results were acquired by Gel Documentation system (Bio-Rad).
# EF cells were MβCD-treated and cultured in the hydrogel-casted petri dishes for 7 days before RNA extraction. The stiffness of the hydrogel was listed on the top of each lane. Total RNAs from spheres and dish-adhered cells were analyzed for the expression of the PI genes by RT-PCR. PCR-amplified fragments were dissolved by 1.5% agarose gel and stained by Ethidium Bromide. […]
# EF cells were MβCD-treated and cultured in the petri dishes. […] The message for each PI gene was analyzed as described in FIG. 1 and shown in B.
compound,measurement,setting,value
C[S+](C)[O-] [DMSO],expression of PIFs,PIFs,repressed
Cc1c(C(=O)Nc2cccc(C(F)(F)F)c2)cc(-c2ccccc2)n1CCCN1CCOCC1 [HC 067047],solubility,[1],only soluble in DMSO or alcohols
CCCC(CCC)C(=O)O [Valproic acid],increase of reprogramming efficiency over the four transcription factor method,[2],100 fold
GsMTX4,PI genes expression,"EF cells [3]; GsMTX4, 16 hours",responded like that observed in the study of fresh spleen cells
same,PI genes expression,"EF cells [3]; GsMTX4, day 3",found activated
same,PI genes expression,[4],resembled to that of fresh bone marrow cells
same,C/EBPα expression,bone marrow cells,activated prominently
same,FOXP1 (non-PI gene) expression change,bone marrow cells,the expression change was small
same,IRF8 (non-PI gene) expression change,bone marrow cells,the expression change was small
same,RUNX1 expression,bone marrow cells,activated prominently
same,Sox2 expression,bone marrow cells,activated prominently
same,Oct4 message compared with the control cells,"bone marrow cells; 37° C., polystyrene surface",greater than 100 times
same,PI genes expression,"spleen cells; GsMTX4, 16 hours",consistently repressed
same,PI genes expression,"spleen cells; GsMTX4, day 3",activation of the PI genes was significantly observed
same,solubility,[1],water soluble
methyl-β-cyclodextrin [MβCD],efficiency of generating stem cell-like / differentiated cells,EF cells [5]; EF cells,greater efficiency than that of the hydrogel only
same,sphere formation on hydrogel,"EF cells [5]; MβCD, then low pascal hydrogels (1.7, 3.2, 7.4 kpa), O/N culture",formation of various size spheres were observed
same,PI genes expression in response to GsMTX4 after MβCD treatment,"spleen cells; 37° C. MβCD treatment, then GsMTX4 O/N culture",activation of PI genes
same,appearance of novel-phenotype cells,Human PBMC,observed novel-phenotype cells
same,time to detection of un-spliced PI gene messages after cholesterol depletion,EF cells [6]; MβCD-treated EF cells attached to dish bottom,≤ 24 h
same,presence of spliced PI gene messages,"EF cells [6]; MβCD-treated EF cells attached to dish bottom, day 1, 4, 7",present only in the cells cultured 7 days
same,"messages for Oct4, Nanog, and Sox2 at predicted sizes in bottom-adhered cells","EF cells [6]; MβCD-treated, hydrogel-casted petri dishes, 7 days",significant messages
